Results as given in patent US20250230155A1 (Vanderbilt University, priority 2021, published 2025).

Target: T1, human mAChR M4 (Homo sapiens, UniProt P08173)
T1 construct: expressed in transfected cells
T1 sequence (P08173 1-479): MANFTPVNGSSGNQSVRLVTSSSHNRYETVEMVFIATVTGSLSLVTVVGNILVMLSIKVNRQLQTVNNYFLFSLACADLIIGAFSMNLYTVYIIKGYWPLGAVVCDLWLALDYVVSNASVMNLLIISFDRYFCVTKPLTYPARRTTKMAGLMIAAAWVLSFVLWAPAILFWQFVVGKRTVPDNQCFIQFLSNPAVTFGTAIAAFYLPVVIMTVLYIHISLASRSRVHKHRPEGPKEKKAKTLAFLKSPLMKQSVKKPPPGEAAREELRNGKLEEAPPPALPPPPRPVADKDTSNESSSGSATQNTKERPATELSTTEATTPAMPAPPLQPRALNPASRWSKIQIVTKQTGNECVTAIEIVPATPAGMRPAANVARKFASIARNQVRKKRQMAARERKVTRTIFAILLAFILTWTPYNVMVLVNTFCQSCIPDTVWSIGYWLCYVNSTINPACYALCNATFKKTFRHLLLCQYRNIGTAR
Test: mAChR M4 cell-based functional assay (calcium mobilization, CHO-K1 hM4-Gqi5 cells)
Conditions: for Emax at 30 µM: CHO-K1, % ACh maximum at 30 μM, human M4; for EC50: positive allosteric modulator activity, increase in the EC20 acetylcholine response, CHO-K1 hM4-Gqi5 cells, read-out: Human M4 EC50
Procedure, shortened: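 Fluorescent calcium read-out (Fluo-4 AM, FDSS, 1 Hz) in hM4-Gqi5 CHO-K1 cells, 11-point 1:3 compound series. Agonism scored on compound addition, PAM activity as increase of the 144 s EC20 acetylcholine response, antagonism as decrease of the 230 s EC80 response; four-parameter logistic fits give EC50 and Emax.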

SMILES | Emax at 30 µM | EC50
Cc1nc(C)c(C)c(N2CCc3ncc(C(F)(F)F)cc3C2)n1 [compound 235, 3-(trifluoromethyl)-6-(2,5,6-trimethylpyrimidin-4-yl)-5,6,7,8-tetrahydro-1,6-naphthyridine] | 87% | 350 nM
Cc1cc(C(=O)NCc2ccncc2)cnc1N1CCc2ncc(-c3cn(C)nc3C)cc2C1 [Example 482, 6-(3-(1,3-dimethyl-1H-pyrazol-4-yl)-7,8-dihydro-1,6-naphthyridin-6(5H)-yl)-5-methyl-N-(pyridin-4-ylmethyl)nicotinamide] | 78% | 468 nM
Cc1cc(C#N)nnc1N1CCc2ncc(Oc3ccc(F)cc3F)cc2C1 [Example 355, 6-(3-(2,4-difluorophenoxy)-7,8-dihydro-1,6-naphthyridin-6(5H)-yl)-5-methylpyridazine-3-carbonitrile] | 81% | 297 nM
COc1cc(-c2cnc3c(c2)CN(c2nnc(C#N)c(C)c2C)CC3)ccn1 [compound 76, 6-[3-(2-methoxy-4-pyridyl)-7,8-dihydro-5H-1,6-naphthyridin-6-yl]-4,5-dimethyl-pyridazine-3-carbonitrile] | 76% | 1490 nM
Cc1cc(C(=O)N2CC(F)C2)nnc1N1CCc2ncc(N3CCCn4nccc43)cc2C1 [Example 551, (6-(3-(6,7-dihydropyrazolo[1,5-a]pyrimidin-4(5H)-yl)-7,8-dihydro-1,6-naphthyridin-6(5H)-yl)-5-methylpyridazin-3-yl)(3-fluoroazetidin-1-yl)methanone] | 111% | 44 nM
Cc1cc(C(=O)N2CC(N(C)C)C2)nnc1N1CCc2ncc(N3CCCn4nccc43)cc2C1 [Example 518, (6-(3-(6,7-dihydropyrazolo[1,5-a]pyrimidin-4(5H)-yl)-7,8-dihydro-1,6-naphthyridin-6(5H)-yl)-5-methylpyridazin-3-yl)(3-(dimethylamino)azetidin-1-yl)methanone] | 102% | 32 nM
Cc1cc(C(=O)N2CC(C)C2)nnc1N1CCc2ncc(N3CCCn4nccc43)cc2C1 [Example 549, (6-(3-(6,7-dihydropyrazolo[1,5-a]pyrimidin-4(5H)-yl)-7,8-dihydro-1,6-naphthyridin-6(5H)-yl)-5-methylpyridazin-3-yl)(3-methylazetidin-1-yl)methanone] | 120% | 56 nM
Cc1cc(C(=O)N2CC(C)(F)C2)nnc1N1CCc2ncc(-n3cccn3)cc2C1 [Example 569, (6-(3-(1H-pyrazol-1-yl)-7,8-dihydro-1,6-naphthyridin-6(5H)-yl)-5-methylpyridazin-3-yl)(3-fluoro-3-methylazetidin-1-yl)methanone] | 78% | 200 nM
COc1cccc2cc(CNC(=O)c3cnc(N4CCc5ncccc5C4)c(C)c3)oc12 [compound 162, 6-(7,8-dihydro-5H-1,6-naphthyridin-6-yl)-N-[(7-methoxybenzofuran-2-yl)methyl]-5-methyl-pyridine-3-carboxamide] | 65% | 3350 nM
[2H]C([2H])([2H])c1cnc2c(c1)CN(c1nnc(C(=O)N3CCCC3)cc1C)CC2 [Example 578, (5-methyl-6-(3-(methyl-d3)-7,8-dihydro-1,6-naphthyridin-6(5H)-yl)pyridazin-3-yl)(pyrrolidin-1-yl)methanone] | 105% | 2440 nM
Cc1nn(C)cc1-c1cnc2c(c1)CN(c1nc(NC3CC3)nc(C)c1C)CC2 [compound 272, N-cyclopropyl-4-(3-(1,3-dimethyl-1H-pyrazol-4-yl)-7,8-dihydro-1,6-naphthyridin-6(5H)-yl)-5,6-dimethylpyrimidin-2-amine] | 78% | 466 nM
Cc1cc(C(=O)NCc2ccc(N3CCOCC3)nc2)cnc1N1CCc2ncc(-c3cn(C)nc3C)cc2C1 [Example 480, 6-(3-(1,3-dimethyl-1H-pyrazol-4-yl)-7,8-dihydro-1,6-naphthyridin-6(5H)-yl)-5-methyl-N-((6-morpholinopyridin-3-yl)methyl)nicotinamide] | 76% | 1390 nM
